≈ marks a conversion by molar mass, not a printed value.
What was measured:
[1] = tested on: HCMV AD169-GFP; set-up: method as in PMID 25624324; details: read-out: antiviral EC50 value (HCMV); cited from earlier work
[2] = Plasma protein binding, human; format: in vitro ADME; details: read-out: Plasma protein binding (% bound) human (converted)
[3] = tested on: HCMV-encoded vCDK/pUL97; set-up: method as in PMID 37591314; details: cited from earlier work
[4] = Solubility (SolRank); format: physicochemical; details: pH 7.4
[5] = format: in vitro ADME
[6] = PAMPA; format: in vitro ADME; details: pH 7.4
[7] = target: T1, CDK7–cyclin H–MAT1 (Homo sapiens, UniProt P50613); set-up: method as in PMID 25624324; details: kinome-wide panel of 333 kinases; cited from earlier work
T1 construct: purchased Invitrogen PR6749B

[8] = tested on: human CDK7–cyclin H–MAT1; set-up: method as in PMID 25624324; details: cited from earlier work
[9] = in vivo
Procedure: Later, this drug served as the parental compound for the generation of novel covalently binding CDK7-directed warheads (Figure 2A, panels a–h). To reveal LDC4297, a chemical library was designed in silico for the targeting of kinases and was applied for screening against human CDK7–cyclin H–MAT1 by the use of in vitro kinase assays. […] In particular, a kinome-wide analysis with 333 individual kinases was performed to assess compound selectivity in vitro.
(A) Chemical linkage of an acceptor for the Michael 1,4 addition reaction was performed to generate QRS compounds 6, 7, and 9. Through the covalent binding of host target CDK7, a block of virus-supportive functions was achieved, and further details on this antiviral strategy were described elsewhere (a,b; c,d, this study, and Yu et al., in preparation; d–f; f–h). (B) Determination of in vitro eADME parameters (early […]-distribution-metabilism-excretion) and pharmacokinetics (PK) parameters, including mean plasma concentrations in vivo (male CD-1® mice).

[10] = format: in vitro ADME; remark: listed apart in the source
[11] = Caco-2 permeability assay; format: in vitro ADME; details: human
[12] = Plasma protein binding, mouse; format: in vitro ADME; details: read-out: Plasma protein binding (% bound) mouse (converted)
[13] = male, CD-1, mouse, in vivo, po, 100 mg/kg

T1 sequence (P50613 whole entry): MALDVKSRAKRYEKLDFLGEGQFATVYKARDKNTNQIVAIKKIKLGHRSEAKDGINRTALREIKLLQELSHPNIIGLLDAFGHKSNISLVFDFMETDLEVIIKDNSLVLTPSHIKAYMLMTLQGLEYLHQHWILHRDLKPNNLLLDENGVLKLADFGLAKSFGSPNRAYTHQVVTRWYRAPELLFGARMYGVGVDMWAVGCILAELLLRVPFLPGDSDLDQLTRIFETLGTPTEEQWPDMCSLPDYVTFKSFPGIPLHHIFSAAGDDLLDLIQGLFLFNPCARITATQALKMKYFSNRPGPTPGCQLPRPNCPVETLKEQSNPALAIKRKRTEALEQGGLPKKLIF
T1 sequence (P51946 whole entry partner): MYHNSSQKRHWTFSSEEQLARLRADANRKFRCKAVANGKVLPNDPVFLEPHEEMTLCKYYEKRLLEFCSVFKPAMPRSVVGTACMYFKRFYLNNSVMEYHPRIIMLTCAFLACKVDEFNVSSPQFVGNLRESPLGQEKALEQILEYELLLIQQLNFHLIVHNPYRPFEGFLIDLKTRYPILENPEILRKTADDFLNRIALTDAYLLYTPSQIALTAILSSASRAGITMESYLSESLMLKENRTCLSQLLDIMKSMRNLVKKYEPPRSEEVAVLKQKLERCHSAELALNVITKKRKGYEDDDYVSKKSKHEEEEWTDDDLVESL
T1 sequence (P51948 whole entry partner): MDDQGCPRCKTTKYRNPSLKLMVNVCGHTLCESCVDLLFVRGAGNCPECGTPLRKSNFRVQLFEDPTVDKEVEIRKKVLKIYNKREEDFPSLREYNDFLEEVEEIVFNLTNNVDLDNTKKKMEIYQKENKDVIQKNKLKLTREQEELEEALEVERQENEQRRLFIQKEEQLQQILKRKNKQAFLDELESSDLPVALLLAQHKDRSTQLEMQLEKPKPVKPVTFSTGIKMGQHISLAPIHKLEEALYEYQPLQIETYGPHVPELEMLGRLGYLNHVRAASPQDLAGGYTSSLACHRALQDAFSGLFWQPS

**Q.** For `CC(C)c1cnn2c(NCc3ccccc3-n3cccn3)nc(OC3CCCNC3)nc12` (centres unmarked) [LDC4297], which EC50 [1] is on record?
**A.** 24.5 ± 1.3 nM

**Q.** And the fraction unbound [2]?
**A.** 0.142

**Q.** What about the “secondary targeting activity against vCDK/pUL97” value [3] of the same compound?
**A.** lack of a secondary targeting activity

**Q.** What about the solubility [4] of the same compound?
**A.** 373 µM (≈ 162 µg/mL)

**Q.** And the “Plasma stability (% remain) mouse” value [5]?
**A.** 100.0 % remain

**Q.** And the “PAMPA (% Flux)” value [6]?
**A.** 76.25 % Flux

**Q.** And the “residual activity in the presence of LDC4297” value [7]?
**A.** 2%

**Q.** What about the IC50 [8] of the same compound?
**A.** < 5 nM

**Q.** And the AUC(0-inf) [9, 13]?
**A.** 3620 ng·h/mL

**Q.** And the AUC(0-t) [9, 13]?
**A.** 3520 ng·h/mL

**Q.** And the Cmax [9, 13]?
**A.** 1300 ng/mL

**Q.** And the Tmax [9, 13]?
**A.** 0.5 h

**Q.** And the bioavailability [9, 13]?
**A.** 97.7%

**Q.** What about the half-life [9, 13] of the same compound?
**A.** 1.6 h

**Q.** And the tz [9, 13]?
**A.** 8 h

**Q.** What about the concentration at 8 h ([9]; male, CD-1, mouse, in vivo, po, 100 mg/kg, Cz, mouse 100 mg/kg p.o.) of the same compound?
**A.** 43.2 ng/mL

**Q.** And the concentration at 0 min ([9]; male, CD-1, mouse, in vivo, po, 100 mg/kg, Mean plasma concentration, mouse 100 mg/kg p.o., sampling time 0 min)?
**A.** 0 ng/mL

**Q.** What about the concentration at 30 min ([9]; male, CD-1, mouse, in vivo, po, 100 mg/kg, Mean plasma concentration, mouse 100 mg/kg p.o., sampling time 30 min) of the same compound?
**A.** > 1200 ng/mL

**Q.** What about the concentration at 90 min ([9]; male, CD-1, mouse, in vivo, po, 100 mg/kg, Mean plasma concentration, mouse 100 mg/kg p.o., sampling time 90 min) of the same compound?
**A.** 713 ± 411 ng/mL

**Q.** What about the concentration at 240 min ([9]; male, CD-1, mouse, in vivo, po, 100 mg/kg, Mean plasma concentration, mouse 100 mg/kg p.o., sampling time 240 min) of the same compound?
**A.** 373 ± 108 ng/mL

**Q.** And the concentration at 480 min ([9]; male, CD-1, mouse, in vivo, po, 100 mg/kg, Mean plasma concentration, mouse 100 mg/kg p.o., sampling time 480 min)?
**A.** 43.2 ± 44 ng/mL

**Q.** And the Mean plasma concentration ([9]; mouse 100 mg/kg p.o., sampling time 30 min)?
**A.** 1297.6 ± 678.0 ng/mL

**Q.** And the “Plasma stability (% remain) human” value [10]?
**A.** 91.6 % remain

**Q.** And the Papp A→B ([11]; A→B)?
**A.** 15.4 ×10⁻⁶ cm/s

**Q.** What about the efflux ratio ([11]; efflux ratio, read-out: Caco-2 permeability B→A / A→B) of the same compound?
**A.** 1.57

**Q.** What about the fraction unbound [12] of the same compound?
**A.** 0.0951
